Assay results taken from ChEMBL document CHEMBL1201862, “PubChem BioAssay data set” (2004).
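Protocol summary: plate cells (96-well), add compound at 5 concentrations, incubate 48 h, interpolate endpoints linearly. Abbreviation: GI50, concentration required for 50% inhibition of growth.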 The source made the active and inactive calls. No stated cut-off is given here; in the data, active = GI50 up to about 1.1 µM and inactive = higher.

Legend:
Experiment in all cases: NCI tumour cell line growth inhibition, 48 h
[1] = test system: 786-0
[2] = test system: A498
[3] = test system: A549
[4] = test system: ACHN
[5] = test system: BT-549
[6] = test system: CAKI-1
[7] = test system: CCRF-CEM
[8] = test system: COLO 205
[9] = test system: DU-145
[10] = test system: EKVX
[11] = test system: HCC 2998
[12] = test system: HCT-116
[13] = test system: HCT-15
[14] = test system: HL-60
[15] = test system: HOP-62
[16] = test system: HOP-92
[17] = test system: HT-29
[18] = test system: Hs-578T
[19] = test system: IGROV-1
[20] = test system: K562
[21] = test system: KM12
[22] = test system: LOX IMVI
[23] = test system: M14
[24] = test system: MCF7
[25] = test system: MDA-MB-231
[26] = test system: MDA-MB-435
[27] = test system: MDA-N
[28] = test system: MOLT-4
[29] = test system: Malme-3M
[30] = test system: NCI-H226
[31] = test system: NCI-H23
[32] = test system: NCI-H460
[33] = test system: NCI-H522
[34] = test system: NCI/ADR-RES
[35] = test system: OVCAR-3
[36] = test system: OVCAR-4
[37] = test system: OVCAR-5
[38] = test system: OVCAR-8
[39] = test system: PC-3
[40] = test system: RPMI-8226
[41] = test system: RXF 393
[42] = test system: SF-268
[43] = test system: SF-539
[44] = test system: SK-MEL-28
[45] = test system: SK-MEL-2
[46] = test system: SK-MEL-5
[47] = test system: SK-OV-3
[48] = test system: SN12C
[49] = test system: SNB-19
[50] = test system: SNB-75
[51] = test system: SR
[52] = test system: SW-620
[53] = test system: T47D
[54] = test system: U-251
[55] = test system: UACC-257
[56] = test system: UACC-62
[57] = test system: SF-295
[58] = test system: TK-10
[59] = test system: UO-31

With `C#C[C@]1(O)CC[C@H]2[C@@H]3CCc4cc(OC(=O)c5cccc6cc7ccccc7nc56)ccc4[C@H]3CC[C@@]21C` the GI50 [1] was 27.5 µM (inactive), the GI50 [2] was > 100 µM (inactive) and the GI50 [3] was 34 µM (inactive). The GI50 [4] was 49 µM (inactive), the GI50 [5] was 74 µM (inactive) and the GI50 [6] was 23 µM (inactive). For the same molecule, the GI50 [7] was 12.8 µM (inactive), the GI50 [8] was 11 µM (inactive) and the GI50 [9] was 23.5 µM (inactive). For the same molecule, the GI50 [10] was 12.9 µM (inactive), the GI50 [11] was 29.4 µM (inactive) and the GI50 [12] was 24.3 µM (inactive). The GI50 [13] was 26.1 µM, the GI50 [14] was 8.75 µM (inactive) and the GI50 [15] was 38.2 µM (inactive). For the same molecule, the GI50 [16] was 66.5 µM (inactive), the GI50 [17] was 33.9 µM (inactive) and the GI50 [18] was 25.6 µM (inactive). The GI50 [19] was 14.6 µM (inactive), the GI50 [20] was > 100 µM (inactive) and the GI50 [21] was 20 µM (inactive). For the same molecule, the GI50 [22] was 20.5 µM (inactive), the GI50 [23] was 31 µM (inactive) and the GI50 [24] was 25.2 µM (inactive). For the same molecule, the GI50 [25] was 25.6 µM (inactive), the GI50 [26] was 31.2 µM (inactive) and the GI50 [27] was 25.5 µM (inactive). The GI50 [28] was 6.98 µM (inactive), the GI50 [29] was 6.44 µM (inactive) and the GI50 [30] was 33.2 µM (inactive). The GI50 [31] was 40.3 µM (inactive), the GI50 [32] was 23 µM (inactive) and the GI50 [33] was 15.5 µM (inactive). For the same molecule, the GI50 [34] was 28.8 µM (inactive), the GI50 [35] was 21.4 µM (inactive) and the GI50 [36] was 38.4 µM (inactive). For the same molecule, the GI50 [37] was 43.8 µM (inactive), the GI50 [38] was 40.8 µM (inactive) and the GI50 [39] was 35.9 µM (inactive). For the same molecule, the GI50 [40] was 22 µM (inactive), the GI50 [41] was 44.4 µM (inactive) and the GI50 [42] was 67.5 µM (inactive). For the same molecule, the GI50 [43] was 31.6 µM (inactive), the GI50 [44] was 35.9 µM (inactive) and the GI50 [45] was 29.2 µM (inactive). The GI50 [46] was 13.6 µM (inactive), the GI50 [47] was 62.1 µM (inactive) and the GI50 [48] was 20.9 µM (inactive). For the same molecule, the GI50 [49] was 50.7 µM (inactive), the GI50 [50] was 31.2 µM (inactive) and the GI50 [51] was 5.52 µM (inactive). The GI50 [52] was 29.7 µM (inactive), the GI50 [53] was 13.9 µM (inactive) and the GI50 [54] was 24 µM (inactive). For the same molecule, the GI50 [55] was 63.4 µM (inactive) and the GI50 [56] was 28.5 µM (inactive).
In the case of `CCOc1cc(/C=N/c2nc3cc4sc(/N=C/c5ccc(O)c(OCC)c5)nc4cc3s2)ccc1O`, the GI50 [1] is reported as > 100 µM (inactive), the GI50 [2] is reported as > 100 µM (inactive) and the GI50 [3] is reported as 52.4 µM (inactive). The GI50 [4] was > 100 µM (inactive), the GI50 [5] was > 100 µM (inactive) and the GI50 [6] was > 100 µM (inactive). The GI50 [8] was 24.7 µM (inactive), the GI50 [9] was > 100 µM (inactive) and the GI50 [10] was 79.1 µM (inactive). For the same molecule, the GI50 [11] was > 100 µM (inactive), the GI50 [12] was > 100 µM (inactive) and the GI50 [13] was greater than 100 µM. For the same molecule, the GI50 [14] was 3.62 µM (inactive), the GI50 [15] was > 100 µM (inactive) and the GI50 [16] was > 100 µM (inactive). The GI50 [17] was 60.4 µM (inactive), the GI50 [18] was > 100 µM (inactive) and the GI50 [19] was > 100 µM (inactive). For the same molecule, the GI50 [20] was 60.5 µM (inactive), the GI50 [21] was > 100 µM (inactive) and the GI50 [22] was 55.8 µM (inactive). The GI50 [23] was > 100 µM (inactive), the GI50 [24] was 82 µM (inactive) and the GI50 [25] was > 100 µM (inactive). For the same molecule, the GI50 [26] was > 100 µM (inactive), the GI50 [27] was 93.3 µM (inactive) and the GI50 [28] was 30.8 µM (inactive). For the same molecule, the GI50 [29] was > 100 µM (inactive), the GI50 [30] was 25.8 µM (inactive) and the GI50 [31] was > 100 µM (inactive). For the same molecule, the GI50 [32] was 20.4 µM (inactive), the GI50 [33] was 50.4 µM (inactive) and the GI50 [34] was > 100 µM (inactive). The GI50 [35] was > 100 µM (inactive), the GI50 [36] was > 100 µM (inactive) and the GI50 [37] was > 100 µM (inactive). The GI50 [38] was > 100 µM (inactive), the GI50 [39] was > 100 µM (inactive) and the GI50 [40] was > 100 µM (inactive). The GI50 [41] was > 100 µM (inactive), the GI50 [42] was > 100 µM (inactive) and the GI50 [57] was > 100 µM (inactive). For the same molecule, the GI50 [43] was 20.7 µM (inactive), the GI50 [44] was 21.3 µM (inactive) and the GI50 [45] was > 100 µM (inactive). The GI50 [46] was 71.8 µM (inactive), the GI50 [47] was > 100 µM (inactive) and the GI50 [48] was 76.7 µM (inactive). The GI50 [49] was > 100 µM (inactive), the GI50 [50] was > 100 µM (inactive) and the GI50 [51] was 12.9 µM (inactive). For the same molecule, the GI50 [52] was 38.7 µM (inactive), the GI50 [53] was > 100 µM (inactive) and the GI50 [58] was > 100 µM (inactive). For the same molecule, the GI50 [54] was > 100 µM (inactive), the GI50 [55] was > 100 µM (inactive) and the GI50 [56] was > 100 µM (inactive). For the same molecule, the GI50 [59] was > 100 µM (inactive).
